Measured values from patent publication US8796256B2 (Janssen Pharmaceutica NV, priority 2010, dated 2014).

Target: T1, ERR1 (also known as ERR-α or ERR-1) (Homo sapiens, UniProt P11474)
T1 sequence (P11474 193-421 limits assumed): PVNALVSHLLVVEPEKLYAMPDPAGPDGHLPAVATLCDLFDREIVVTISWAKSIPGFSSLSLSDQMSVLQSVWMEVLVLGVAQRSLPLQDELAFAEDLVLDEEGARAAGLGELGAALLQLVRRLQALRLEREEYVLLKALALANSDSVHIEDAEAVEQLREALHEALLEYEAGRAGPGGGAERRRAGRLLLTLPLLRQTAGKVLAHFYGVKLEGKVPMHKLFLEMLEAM
Assay: TR-FRET assay (disruption of co-activator peptide binding to ERR1 LBD)
Type: biochemical
Conditions: 6 nM 6His-ERR1LBD, 6 nM GST-SRC-2 peptide; average of 3 independent experiments
How it was run: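 His-tagged ERR1 ligand-binding domain and GST-labelled SRC-2 peptide, each 6 nM, equilibrated at 25° C for 4-18 h in Tris pH 8/Hepes/KCl/DTT/delipidated BSA buffer. Compound-induced loss of co-activator binding read as Eu cryptate→XL665 energy transfer; values from hyperbolic curve fits averaged over 3 independent runs.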

Row | EC50 [nM] | Compound
1 | 51 | C[C@H](N)CN1C(=O)S/C(=C\c2ccc3c(cnn3Cc3ccc(C(F)(F)F)cc3C(F)(F)F)c2)C1=O [Compound 81, (5Z)-3-[(2S)-2-Aminopropyl]-5-({1-[2,4-bis(trifluoromethyl)benzyl]-1H-indazol-5-yl}methylidene)-1,3-thiazolidine-2,4-dione]
2 | 82 | O=C1S/C(=C\c2ccc3c(cnn3Cc3ccc(C(F)(F)F)cc3C(F)(F)F)c2)C(=O)N1C[C@@H]1CCCN1 [Compound 83, (5Z)-5-({1-[2,4-Bis(trifluoromethyl)benzyl]-1H-indazol-5-yl}methylidene)-3-[(2S)-pyrrolidin-2-ylmethyl]-1,3-thiazolidine-2,4-dione]
3 | 650 | NS(=O)(=O)NC(=O)CN1C(=O)S/C(=C\c2ccc3c(cnn3Cc3ccc(C(F)(F)F)cc3C(F)(F)F)c2)C1=O [Compound 87, 2-[(5Z)-5-({1-[2,4-Bis(trifluoromethyl)benzyl]-1H-indazol-5-yl}methylidene)-2,4-dioxo-1,3-thiazolidin-3-yl]-N-sulfamoylacetamide]
4 | 134 | CN(C)S(=O)(=O)NC(=O)CN1C(=O)S/C(=C\c2ccc3c(cnn3Cc3ccc(C(F)(F)F)cc3C(F)(F)F)c2)C1=O [Compound 88, 2-[(5Z)-5-({1-[2,4-Bis(trifluoromethyl)benzyl]-1H-indazol-5-yl}methylidene)-2,4-dioxo-1,3-thiazolidin-3-yl]-N-(dimethylsulfamoyl)acetamide]

Second part, the molecule before the results:

Row | Compound | EC50 [nM]
5 | O=C1S/C(=C\c2ccc3c(cnn3Cc3ccc(C(F)(F)F)cc3C(F)(F)F)c2)C(=O)N1C[C@H]1CCCN1 [Compound 82, (5Z)-5-({1-[2,4-Bis(trifluoromethyl)benzyl]-1H-indazol-5-yl}methylidene)-3-[(2R)-pyrrolidin-2-ylmethyl]-1,3-thiazolidine-2,4-dione] | 81
6 | O=C1S/C(=C\c2ccc3c(cnn3Cc3ccc(C(F)(F)F)cc3C(F)(F)F)c2)C(=O)N1CCN1CCCC1 [Compound 84, (5Z)-5-({1-[2,4-Bis(trifluoromethyl)benzyl]-1H-indazol-5-yl}methylidene)-3-(2-pyrrolidin-1-ylethyl)-1,3-thiazolidine-2,4-dione] | 580
7 | O=C1S/C(=C\c2ccc3c(cnn3Cc3ccc(Cl)cc3C(F)(F)F)c2)C(=O)N1Cc1c[nH]nn1 [Compound 85, (5Z)-5-({1-[4-Chloro-2-(trifluoromethyl)benzyl]-1H-indazol-5-yl}methylidene)-3-(1H-1,2,3-triazol-4-ylmethyl)-1,3-thiazolidine-2,4-dione] | 136
8 | Cc1nc(CN2C(=O)S/C(=C\c3ccc4c(cnn4Cc4ccc(Cl)cc4C(F)(F)F)c3)C2=O)n[nH]1 [Compound 86, (5Z)-5-({1-[4-Chloro-2-(trifluoromethyl)benzyl]-1H-indazol-5-yl}methylidene)-3-[(5-methyl-1H-1,2,4-triazol-3-yl)methyl]-1,3-thiazolidine-2,4-dione] | 89
9 | O=C1S/C(=C\c2ccc3c(cnn3Cc3ccc(Cl)cc3C(F)(F)F)c2)C(=O)N1C1(C(=O)O)CC1 [Compound 89, 1-[(5Z)-5-({1-[4-Chloro-2-(trifluoromethyl)benzyl]-1H-indazol-5-yl}methylidene)-2,4-dioxo-1,3-thiazolidin-3-yl]cyclopropanecarboxylic acid] | 92
10 | O=C1S/C(=C\c2ccc3c(cnn3Cc3ccc(Cl)cc3C(F)(F)F)c2)C(=O)N1Cc1nc[nH]n1 [Compound 90, (5Z)-5-({1-[4-Chloro-2-(trifluoromethyl)benzyl]-1H-indazol-5-yl}methylidene)-3-(1H-1,2,4-triazol-3-ylmethyl)-1,3-thiazolidine-2,4-dione] | 28
11 | O=C1S/C(=C\c2ccc3c(cnn3Cc3ccc(Cl)cc3C(F)(F)F)c2)C(=O)N1Cc1nccs1 [Compound 92, (5Z)-5-({1-[4-Chloro-2-(trifluoromethyl)benzyl]-1H-indazol-5-yl}methylidine)-3-(1,3-thiazol-2-ylmethyl)-1,3-thiazolidine-2,4-dione] | 24
12 | O=C1S/C(=C\c2ccc3c(cnn3Cc3ccc(Cl)cc3C(F)(F)F)c2)C(=O)N1Cc1cscn1 [Compound 93] | 14
